The values below come from PubChem BioAssay (NCI).

By GI50 is commonly meant the concentration at which growth is held to half of that of the control. For orientation: TGI means the concentration giving total growth inhibition. High values mean less potent growth arrest, low ones more potent growth arrest.

Holding throughout (test): DTP human tumour cell line panel, 48 h
Experiment [1] relates to BT-549 breast.
Experiment [2] concerns HCT-116 colon.
The subject of experiment [3] is IGROV1 ovarian.
Experiment [4] deals with MOLT-4 leukemia.
In experiment [5] the test system is NCI-H522 lung.
Experiment [6] deals with NCI/ADR-RES ovarian.
Experiment [7] relates to SF-268 CNS.
The subject of experiment [8] is SNB-19 CNS.
Experiment [9] has as its system U251 CNS.
The test system of experiment [10] is UACC-62 melanoma.

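How tested: cells in 96-well plates exposed to compound for 48 hours at five concentrations. GI50 marks 50% less growth. TGI is the concentration that stops growth completely.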 Some results are limits rather than exact numbers.

With `CC1=CCC(OC(=O)C(C)(C)CCC(O)(C(=O)OC2(C(C)C)CCC3(C)OC3C2)C(C)C)(C(C)C)CC1` (stereo not drawn), the GI50 was 696 nM in experiment [1]; 113 nM in experiment [2]; 81.4 nM in experiment [3]; 131 nM in [4]; 130 nM in experiment [5]; 635 nM in experiment [6]. Further, the GI50 in experiment [7] is 603 nM; in experiment [8] it was 1140 nM; in [9], 363 nM; in experiment [10], 298 nM. For the same compound, the TGI is 1510 nM in [1]; 381 nM in [2]; 272 nM in experiment [3]; 4990 nM in experiment [4]; 439 nM in experiment [5]; 2630 nM in [6]. In addition, the TGI worked out at 1460 nM in experiment [7], 5430 nM in experiment [8], 1120 nM in experiment [9] and 1110 nM in experiment [10].

As to `CC(C)C[C@H](NC(=O)[C@H]1O[C@@H]1C(=O)O)C(=O)NCCc1ccc(O)cc1`, the GI50 in experiment [1], in [2], in experiment [3], in [4], in [5] and in experiment [6] was greater than 100000 nM in each case. Also, the GI50 in [7], in experiment [8], in experiment [9] and in [10] was greater than 100000 nM in each case. In addition, the TGI in [1], in [2], in experiment [3], in experiment [4], in experiment [5] and in experiment [6] was greater than 100000 nM each time. Further, the total growth inhibition concentration (TGI) in experiment [7], in experiment [8], in experiment [9] and in experiment [10] was greater than 100000 nM in each case.

On to `C=CCNCCCN1C(=O)c2ccc3c4c(ccc(c24)C1=O)C(=O)N(CCCNCC=C)C3=O`, for which the GI50 in [1] was 1780 nM; in experiment [2] it was 279 nM; in [3], 325 nM; in [4] it was 335 nM; in experiment [5], 336 nM; in experiment [6] it was 1740 nM. The GI50 in [7] was 557 nM; in experiment [8] it was 592 nM; in experiment [9] it was 269 nM; in experiment [10], 684 nM. Besides, the TGI in experiment [1] came out at 3630 nM; in [2], 3390 nM; in experiment [3] it was 1200 nM; in [4], 1680 nM; in [5] it was 1340 nM; in experiment [6] it was 12600 nM. Also, the TGI in [7] was 4410 nM; in experiment [8], 1960 nM; in experiment [9] it was 1000 nM; in experiment [10] it was 1760 nM.

Take `COc1ccc(-c2cnnn2-c2cc(OC)c3c(c2)OCO3)cc1`: the GI50 in experiment [1] was 101 nM; in [2] it was 59.6 nM; in experiment [3], 280 nM; in experiment [4], 266 nM; in experiment [5] it was 35.4 nM; in experiment [6], 40.3 nM. The GI50 in experiment [7] was 775 nM; in experiment [9], 231 nM; in [10], 235 nM. The TGI is 28600 nM in experiment [1]; greater than 42300 nM in [2]; greater than 100000 nM in [3]; greater than 27200 nM in experiment [4]; 525 nM in [5]; greater than 100000 nM in experiment [7]. Further, the TGI in experiment [8], in experiment [9] and in experiment [10] was greater than 100000 nM throughout.

Turning to `c1cc(CCN2CCCCC2)ccn1`, the TGI in experiment [1], in experiment [2], in experiment [3], in [4], in experiment [5] and in experiment [6] was greater than 100000 nM in each case. Also, the TGI in experiment [7], in experiment [8], in experiment [9] and in experiment [10] was greater than 100000 nM each time.

Take `C=CC1=C[C@@H]2[C@@H]3O[C@]4(CC[C@H](O4)[C@@H](C)C[C@@H](O)C3=O)C[C@H](O)C3=NCC[C@@]32CC1`: the GI50 in experiment [1], in experiment [2], in [3], in [4], in experiment [5] and in experiment [6] was less than 3.33 nM in each case. In addition, the GI50 in experiment [7], in [8], in [9] and in experiment [10] was less than 3.33 nM each time. The TGI in experiment [1] is less than 3.33 nM; in experiment [2], 3.71 nM; in experiment [3] it was 3.37 nM; in experiment [4], 112 nM; in [5], 3.53 nM; in [6], 5.11 nM. Further, the TGI in experiment [7] is 5.75 nM; in experiment [8], less than 3.33 nM; in experiment [9], 390 nM; in experiment [10], 4.12 nM.

On to `C/C(=C\c1ccn(-c2ccc(N)c(F)c2)n1)[C@@H]1C[C@@H]2O[C@]2(C)CCC[C@H](C)[C@H](O)[C@@H](C)C(=O)C(C)(C)[C@@H](O)CC(=O)O1`, for which the GI50 in experiment [1] is 41 nM; in experiment [2], 7.96 nM; in experiment [3], 59.9 nM; in experiment [4], 10.6 nM; in experiment [5], 9.73 nM; in [6] it was 94.3 nM. The GI50 in experiment [7] was 41.8 nM; in experiment [8], 48 nM; in [9], less than 5 nM; in experiment [10], 51.7 nM. For the same compound, the TGI in experiment [1] was 25400 nM; in [2] it was greater than 50000 nM; in experiment [3], greater than 50000 nM; in experiment [4], greater than 50000 nM; in experiment [5], 32.1 nM; in experiment [6], greater than 50000 nM. Moreover, the TGI in experiment [7], in experiment [8], in [9] and in experiment [10] was greater than 50000 nM in each case.

As to `NC(=O)c1oc([N+](=O)[O-])c(-c2ccccc2)c1-c1ccccc1`, the TGI was found to be 40600 nM in [1]; 36000 nM in [2]; 31500 nM in [3]; 96600 nM in experiment [4]; 31500 nM in experiment [5]; 57200 nM in experiment [6]. Also, the TGI in [7] is greater than 100000 nM; in experiment [8], greater than 100000 nM; in experiment [9] it was 71100 nM; in [10], 21300 nM.
